Data on 1 compound can be found in patent US20060094790A1, “Use of sphingosine kinase activator as skin disease treating agent and method for treating skin diseases using the same” (priority 2004, published 2006).

The subject of one data set is hairless mouse. It counts as in vivo. Particulars: 1.0% in PEG:EtOH=7:3 combined with 0.05% chlobetason-17-propionate, back of hairless mouse, H & E staining. From the text:
To evaluate effect of the sphingosine kinase activator upon inhibition of steroid side effects, a steroid was applied to a hairless mouse. Typically, side effects caused by long-term or excessive dose of steroids include skin atrophy expressed by thinning of skin and weakening of skin functions, and a rebound phenomenon including reoccurrence of conditions caused by stopping use of steroids. It is reported that the main cause for such side effects is inhibition of fibroblast activity and a decrease in collagen production (S. Hammer et al., J. Cell. Biochem, 91, 840-851, 2004), Therefore, it is expected that the compound according to the present invention enhances collagen synthesis and differentiation of keratinocytes, and thus inhibits such side effects caused by steroids. To perform a test, a steroid, i.e. 0.05% chlobetason-17-propionate, and […]-5 according to the present invention (1.0% in PEG:EtOH=7:3) were applied to a hairless mouse and changes in the skin were observed. The treating agents were applied to the back of a hairless mouse 9 times per day and the tissue was collected. Then, the epidermis and dermis were observed by carrying out the H & E staining method (hematoxylin and eosin staining) known to one skilled in the art.

For another data set, the system named is RBL-2H3 cell line. As to the kind of experiment: Intracellular calcium movement (fura-2 fluorescence). It counts as cell-based. To be noted: RBL-2H3 cells, fura-2, FIGS. 1a to 1d. On the procedure:
First, the following experiment for calcium movement was performed in order to determine whether the above sphingosine kinase activator compounds activate sphingosine-1-phosphate, so as to cause intracellular calcium movement, which is a typical activity specific to sphingosine-1-phosphate.
The sphingosine kinase activator compounds were determined for capability of inducing intracellular calcium movement by using a RBL-2H3 cell line, which is one of the typical cell lines showing intracellular calcium movement. The cells are cultured by using an RPMI 1640 culture medium and the cells were washed simultaneously with removal of the medium. Then, 10 μM of fura-2/Am and 250 μl M of sulfinpyrazone were added thereto, followed by incubation for 30 minutes. Cell pellets were obtained by centrifugal separation and the cell pellets were dispersed in Ca^2+-free Locke's solution. The dispersion was divided into a unit of 1×10^6 cells for use in treating samples. Next, the cells were introduced into a cuvet of a fluorescence microscope, each sphingosine kinase activator compound was added thereto, and intracellular calcium movement was observed by the fluorescence microscope (RF-5310PC, Spectrofluoro photometer, SHIMADZU). When intracellular calcium ions are detected, they cause fluorescence by bonding with fura-2. Therefore, a degree of calcium movement caused by a sample was evaluated by calculating a difference between the measurement of fura-2 ([…]) bonded with calcium and that of non-bonded fura-2 ([…]).
(In general: A change in cytosolic calcium serves as a functional read-out for many receptors and channels.)

A further data set deals with keratinocytes. The experiment in a line: Differentiation of keratinocytes (western blotting of involucrin and keratin-1). To be noted: 10 μM, 48 hours, FIG. 2. It counts as cell-based. On the procedure:
In order to evaluate the effect of the above compound according to the present invention upon differentiation of keratinocytes, each of K6PC4, K6PC-5, K6PC-7 and K6PC-9 was dissolved in DMSO at a concentration of 10 μM and used as sample. Evaluation was performed by using the western blotting method. As differentiation markers, involucrin and keratine-1, which were differentiation markers of keratinocytes, were measured. Next, 48 hours after the treatment of samples, the culture solution was discarded and the cells were washed with PBS and collected by filtering. The collected cells were washed again and subjected to centrifugal separation to remove supernatant. The cells were dissolved in a solvent and subjected to centrifugal separation at 12,000 rpm for 10 minutes, thereby removing cell membranes, etc. Protein concentration was determined by the Bradford method. Proteins were separated by mini gel type SDS-PAGE (polyacrylamide gel electrohoresis) and transferred to a PVDF (polyvinylidene fluoride) membrane at 100V for 1 hour, so that gel-like proteins were subjected to blotting with a transfer membrane. Then, the membrane was colored with Ponceau S solution to determine whether transfer was accomplished or not. The membrane was blocked by using TTBS (TBS+0.1% Tween 20) solution containing 5% non-fat dried milk. In order to check the amount of involucrin as differentiation marker of keratinocytes, primary antibody involucrin (Neomarkers Co.) was diluted at a ratio of about 1/200 to 1.400, and keratin-1 (Covance Co.) was diluted at a ratio of about 1/1000. Reactions were performed overnight at 4° C. As secondary antibody, anti-mouse IgG and anti-rabbit IgG combined with horseradish peroxidase (HRP) was diluted at a ratio of 1:2000. Then, the secondary antibody was bonded to the primary antibody by making them react at room temperature for 1 hour. The membrane was washed with TTBS three times, reacted with an ECL substrate (Amersham Co.) for 1-3 minutes, and exposed to X-ray films.
(In general: In western blotting, separated proteins are transferred to a membrane and probed.)

For another data set, the system named is guinea pigs. To be noted: guinea pig, in vivo.

Experimental for guinea pigs: Those tests were performed based on “Toxicity Test Standards for Pharmaceutical Products” disclosed by the Korea Food & Drug Administration.
Experimental for human subjects: In this example, effects of improving wrinkles were evaluated in 32 subjects (average age: 46.7). During the total period of 8 weeks, a cream containing 1% of K6PC-5 and cream containing no K6PC-5 (control) were applied around both eye rims and then instrumental evaluation was performed. A silicone replica for the eye tail part of a subject was formed, and the replica was irradiated with light at an angle. Then, a shading degree formed by wrinkles in the replica was photographed by a CCD camera, and the image was determined for a wrinkling degree by using a computer image analysis system. More particularly, a program of Skin Visiometer SV 600 available from C+K Co. (Germany) was used for determination, wherein wrinkle parameters are expressed as R1 through R5 values. R1, R2 and R3 represent deep wrinkles and R4 and R5 represent shallow wrinkles.

Take `CCCCCCCC(=O)C(CCCCCC)C(=O)NC(CO)CO` (stereo not drawn) [K6PC-5, N-(1,3-dihydroxyisopropyl)-2-hexyl-3-oxo-decanamide]: the “inhibition of steroid side effects (skin atrophy)” value in the data set with hairless mouse was “significant inhibition of side effects caused by steroids”. Moreover, the intracellular calcium movement entry in the data set with RBL-2H3 cell line is “caused intracellular calcium movement”. The “expression of differentiation markers (involucrin, keratin-1)” value in the data set on keratinocytes was “expressed the differentiation markers”. Further, the “improvement in the condition of wrinkles around the eye” value in the data set with human subjects (cream containing 1% of K6PC-5, 8 weeks, versus control cream, P<0.05 t-test) is listed as “statistically significant improvement in the condition of wrinkles”. In addition, in the data set on human subjects (human, in vivo), the “skin irritation or hypersensitive reaction (inspection of dermatologists)” value is listed as “no skin irritation or hypersensitive reaction”. Also, the “Skin sensitization test result” value in the data set on guinea pigs is “No irritation”.
